Values of other authors in US20250228771A1, “ALKALINE INTRAORAL PRODUCTS” (priority 2022, published 2025).

Conditions: Tomar S. L. et al., Tobacco Control 1997

In the case of `CN1CCCC1c1cccnc1` (stereo not shown) [nicotine], the “lower pKa” value is listed as “about 3.2”.
